Data on 1 compound can be found in patent publication US12708605B2, “Method of administering a hormone encapsulated by a hydrogel with a dual chamber syringe” (VITALTE LIFESCIENCES INC., priority 2024, dated 2026).

The data set is described as follows: Saturation level of T in saline (T powder slurry). The data set is classed as physicochemical. On the procedure: The T powder was produced as a 2.5 mg/mL slurry in buffer to reach the near saturation point of T in the buffer. Samples of the T powder slurry were removed from only the top layer of the slurry fluid to avoid aspirating T particles in the slurry that may have precipitated at to the bottom. T pellets were collected directly from the vials in which they were stored. The 83 mg hydrogels containing 30% T were collected from Dulbecco's PBS buffer, rinsed, and dried. Each of the collected samples was then placed in a separate container of incubation media (saline in this instance) for the release studies.
Samples of the respective incubation media for the T powder, pelleted T, and hydrogel encapsulated T were collected at 4, 24, and 48 hours, with 2-3 replicates from each experimental group at each collection time. All collected samples were then diluted before assaying for released T in the incubation media. Initially, the samples collected at 4 hours were diluted 400-fold, while the samples collected at 24 and 48 hours were diluted 1600-fold. […] As a result, dilution testing was performed at dilutions of 1200, 1600, 1800, 2200, 2400, and 3000-fold. […]

SMILES strings stand for the structures.

With `C[C@]12CC[C@H]3[C@@H](CCC4=CC(=O)CC[C@@]43C)[C@@H]1CC[C@@H]2O` [T powder, Testosterone], the “approximate saturation level of T in saline” value is “about 1.5 mg/L”.
